US6803198B2, “Carbamate-derivatized nucleosides and oligonucleosides” (ISIS Pharmaceuticals, Inc., priority 1996, dated 2004)

Columns and labels:
[1] = tested on: ICAM-1; assay: Inhibition of LPS-induced ICAM-1 expression in mouse liver; type: in vivo, C57Bl/10 mice; settings: 10 mg/kg i.v. twice, 24 h and 2 h before LPS; liver RNA 4 h after LPS
[2] = tested on: ICAM-1; assay: ICAM-1 expression in bEnd.3 cells (flow cytometry of cell-surface protein, Northern blot of mRNA); type: cell-based, mouse; settings: cell culture, without any cationic lipid adjuvant
From the text: Cholesterol-oligonucleotide assays for ICAM-1 are done in the bEnd.3 cell line, a brain endothelioma using Opti-MEM, trypsin-EDTA and DMEM with high glucose (all from Gibco-BRL, Grand Island, N.Y.), Dulbecco's PBS (Irvine Scientific, Irvine, Calif.), sterile, 12 well tissue culture plates and Facsflow solution (from Becton Dickinson, Mansfield, Mass.), ultrapure formaldehyde (Polysciences, Warrington, Pa.), recombinant human TNF-α (R&D Systems, Minneapolis, Minn., mouse interferon-γ (Genzyme, Cambridge, Mass.), and Fraction V, BSA (Sigma, St. Louis, Mo.). The mouse ICAM-1-PE, VCAM-1-FITC, hamster IgG-FITC and rat IgG2α-PE antibodies were purchased from Pharmingen (San Diego, Calif.). Zeta-Probe nylon blotting membrane was purchased from Bio-Rad (Richmond, Calif.). QuickHyb solution was purchased from Stratagene (La Jolla, Calif.). A cDNA labeling kit, Prime-a-Gene, was purchased from ProMega (Madison, Wis.). NAP-5 columns were purchased from Pharmacia (Uppsala, Sweden). […]
After oligonucleotide treatment, cells are detached from the plates with a short treatment of trypsin-EDTA (1-2 min.). […] Cells are analyzed on a Becton Dickinson FACScan. Results are expressed as percentage of control expression, which is calculated as follows: [((CAM expression for oligonucleotide-treated cytokine induced cells)−(basal CAM expression))/((cytokine-induced CAM expression)−(basal CAM expression))]×100. […]

[3] = mouse, in vivo
Procedure: The effect of cholesterol conjugation on the pharmacokinetic properties of the oligonucleotide is determined in mice using ^3H radiolabeled Oligonucleotide VI.

[4] = tested on: VCAM-1; assay: VCAM-1 expression in cell culture (target specificity control); type: cell-based, mouse; settings: isotype protein VCAM-1
From the text: Cholesterol-oligonucleotide assays for ICAM-1 are done in the bEnd.3 cell line, a brain endothelioma using Opti-MEM, trypsin-EDTA and DMEM with high glucose (all from Gibco-BRL, Grand Island, N.Y.), Dulbecco's PBS (Irvine Scientific, Irvine, Calif.), sterile, 12 well tissue culture plates and Facsflow solution (from Becton Dickinson, Mansfield, Mass.), ultrapure formaldehyde (Polysciences, Warrington, Pa.), recombinant human TNF-α (R&D Systems, Minneapolis, Minn., mouse interferon-γ (Genzyme, Cambridge, Mass.), and Fraction V, BSA (Sigma, St. Louis, Mo.). The mouse ICAM-1-PE, VCAM-1-FITC, hamster IgG-FITC and rat IgG2α-PE antibodies were purchased from Pharmingen (San Diego, Calif.). Zeta-Probe nylon blotting membrane was purchased from Bio-Rad (Richmond, Calif.). QuickHyb solution was purchased from Stratagene (La Jolla, Calif.). A cDNA labeling kit, Prime-a-Gene, was purchased from ProMega (Madison, Wis.). NAP-5 columns were purchased from Pharmacia (Uppsala, Sweden). Cells are grown to approximately 75% confluency in 12 well plates with DMEM containing 4.5 g/L glucose and 10% FBS. […] Cells are analyzed on a Becton Dickinson FACScan. Results are expressed as percentage of control expression, which is calculated as follows: [((CAM expression for oligonucleotide-treated cytokine induced cells)−(basal CAM expression))/((cytokine-induced CAM expression)−(basal CAM expression))]×100. […]

Substance: Oligomer VI: TGC* ATC CCC CAG GCC ACC AT (P = S), C* = cholesterol carbamate nucleoside Compound 9; cholesterol conjugate of ISIS 3082
- reduction of ICAM expression in liver [1]: 40-50%
- effect on ICAM-1 expression [2]: inhibits ICAM-1 in a dose dependent manner
- amount of oligonucleotide in kidney, skeletal muscle and skin [3]: reduced in kidney, skeletal muscle and skin
- amount of oligonucleotide in liver [3]: more oligonucleotide is found in the liver
- retention in plasma [3]: retained in the plasma for longer periods of time than is ISIS-3082
- inhibition of VCAM-1 expression [4]: neither molecule show significant inhibition
